Data from article PMC9599461, “Stereoselectivity in the Membrane Transport of Phenylethylamine Derivatives by Human Monoamine Transporters and Organic Cation Transporters 1, 2, and 3” (Biomolecules, 2022).
Where two headings read alike, the source gives them in different places. Marks after values point to notes of the source that are not given here.

How the values were obtained:
[1] = target: T1, SERT (Homo sapiens, UniProt P31645);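 further: uptake into HEK293 cells stably expressing human SERT over 2 min, enantiomers measured in cell lysate by chiral HPLC-MS/MS, normalized to total protein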
T1 sequence (P31645 whole entry): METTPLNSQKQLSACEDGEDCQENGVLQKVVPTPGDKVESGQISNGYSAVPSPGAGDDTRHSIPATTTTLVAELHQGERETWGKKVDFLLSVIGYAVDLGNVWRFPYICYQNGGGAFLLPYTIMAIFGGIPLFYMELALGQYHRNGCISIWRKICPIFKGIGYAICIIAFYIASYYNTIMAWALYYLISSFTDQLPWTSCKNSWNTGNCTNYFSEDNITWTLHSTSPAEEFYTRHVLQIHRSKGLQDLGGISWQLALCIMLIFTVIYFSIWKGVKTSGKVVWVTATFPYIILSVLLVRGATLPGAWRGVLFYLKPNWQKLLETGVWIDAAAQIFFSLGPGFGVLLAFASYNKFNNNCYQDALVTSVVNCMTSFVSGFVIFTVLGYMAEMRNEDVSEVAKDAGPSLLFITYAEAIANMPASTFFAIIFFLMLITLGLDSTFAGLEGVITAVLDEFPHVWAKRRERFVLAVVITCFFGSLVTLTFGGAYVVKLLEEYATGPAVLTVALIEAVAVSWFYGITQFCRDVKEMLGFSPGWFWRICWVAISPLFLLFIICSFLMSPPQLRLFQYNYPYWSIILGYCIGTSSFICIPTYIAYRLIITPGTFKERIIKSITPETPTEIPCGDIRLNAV
Experimental: (§1) All transport experiments were carried out in HEK293 cells stably overexpressing human MATs or OCTs. […] All cells were regularly cultivated in DMEM supplemented with 10% (v/v) FCS, penicillin (100 U/mL) and streptomycin (100 μg/mL)and kept in culture for no longer than 30 passages.
(§2) For the uptake experiments, 300,000 cells were plated in poly-D-lysine precoated 24-well plates 48 h ahead of the transport experiment. On the day of experiment, cells were initially washed once with 37 °C pre-warmed HBSS+ (Hanks buffered salt solution supplemented with 10 mM HEPES) and subsequently incubated with the substrates dissolved in pre-warmed HBSS+ for exactly two minutes. Incubation was stopped by adding ice-cold HBSS+ followed by two washing steps. After this, cells were lysed with 80% acetonitrile containing 10 ng/mL milnacipran as internal standard for high-performance liquid chromatography coupled to tandem mass spectrometry (HPLC-MS/MS) analysis. For every experiment, two additional wells per cell line were lysed using RIPA buffer for protein quantification. Total protein was quantified using the bicinchoninic acid assay [42]. This was later used for normalization of the uptake data.
(§3) Intracellularly accumulated test substances were quantified by HPLC-MS/MS analysis using a Shimadzu Nexera HPLC system with a SIL-30AC autosampler, a CTO-20AC column oven, a LC-30AD pump, and a CBM-20A controller (Shimadzu, Kyoto, Japan). […] CBH HPLC column (100 × 3 mm inner dimension with 5 μM particle size; Sigma-Aldrich, Darmstadt, Germany) with a corresponding 10 × 3 mm guard column. Reversed phased chromatography was carried out using an ammonium acetate (NH4Ac) buffered aqueous mobile phase with isopropyl alcohol (IPA) as organic solvent. […] The order of elution of the enantiomers was obtained from available reference literature [43] or by applying enantiopure reference compounds to the chiral HPLC.
(§4) Detection was performed with an API 4000 tandem mass spectrometer (AB SCIEX, Darmstadt, Germany) operating in multiple-reaction-monitoring mode. Quantification was performed using the Analyst 1.6.2 software (AB SCIEX, Darmstadt, Germany) and quantified by comparison to standard curves with known concentrations.
(§5) All uptake data were normalized to protein content to account for variation in the number of seeded sells. Transporter-mediated net uptake was calculated by subtracting uptake into empty vector-transfected control cells from uptake into transporter-transfected cells. […] Vmax refers to the maximum transport velocity and Km is defined as the substance concentration required to reach half of vmax. The intrinsic clearance Clint was calculated as the quotient of vmax over Km.

[2] = target: NET (Homo sapiens, UniProt P23975); experiment: Stereoselective uptake into NET-overexpressing HEK293 cells; conditions: for Vmax ± SEM / Km: HEK293 cells overexpressing human NET, racemic substrate, two minutes; for Vmax ± SEM: net uptake; for Clint ± SEM / Stereoselectivity ClInt / Stereoselectivity Vmax / Stereoselectivity Km: NET; for Clint ± SEM: quotient of vmax over Km; for Stereoselectivity ClInt / Stereoselectivity Vmax / Stereoselectivity Km: ratio between enantiomers; for Stereoselectivity ClInt / Stereoselectivity Vmax: given as for (S) or for 2; for Stereoselectivity Km: given as for (S) or for 2 (second-eluting); for Km: read-out: Km ± SEM, net uptake minus empty vector control;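 on all read-outs here: intracellular enantiomers quantified in cell lysates by chiral HPLC-MS/MS after a 2 min substrate incubation, with uptake normalized to total cellular protein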
Sequence of NET (P23975 whole entry): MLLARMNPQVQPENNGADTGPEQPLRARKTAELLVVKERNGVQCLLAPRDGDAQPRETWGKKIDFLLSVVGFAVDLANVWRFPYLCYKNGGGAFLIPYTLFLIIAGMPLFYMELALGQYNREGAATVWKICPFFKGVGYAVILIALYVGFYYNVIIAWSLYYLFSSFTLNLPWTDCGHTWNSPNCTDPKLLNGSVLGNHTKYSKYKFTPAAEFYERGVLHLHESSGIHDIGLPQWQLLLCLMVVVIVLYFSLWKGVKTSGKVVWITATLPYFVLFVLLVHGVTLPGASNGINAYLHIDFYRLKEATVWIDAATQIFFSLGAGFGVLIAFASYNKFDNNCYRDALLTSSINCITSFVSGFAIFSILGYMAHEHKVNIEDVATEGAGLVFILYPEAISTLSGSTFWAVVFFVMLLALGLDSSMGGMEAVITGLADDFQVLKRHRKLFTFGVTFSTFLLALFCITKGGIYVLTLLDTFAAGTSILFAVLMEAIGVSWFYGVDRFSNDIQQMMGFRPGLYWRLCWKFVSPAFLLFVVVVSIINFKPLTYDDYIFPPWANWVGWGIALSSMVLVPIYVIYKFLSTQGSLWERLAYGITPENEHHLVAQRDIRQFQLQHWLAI

[3] = tested on: OCT2 A270S variant; experiment: Stereoselective uptake into OCT2 A270S variant-overexpressing HEK293 cells; conditions: OCT2 wild-type versus A270S, 100 μM racemic substance, two minutes, given as for WT;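 further: uptake into HEK293 cells stably overexpressing human OCT2 variants, intracellular enantiomers quantified by chiral HPLC-MS/MS and normalized to total protein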
[4] = target: T2, OCT3 (Homo sapiens, UniProt O75751); experiment: Stereoselective uptake into OCT3-overexpressing HEK293 cells; conditions: for Vmax ± SEM / Km: HEK293 cells overexpressing human OCT3, racemic substrate, two minutes; for Vmax ± SEM: net uptake; for Clint ± SEM: quotient of vmax over Km; for Stereoselectivity Vmax: given as for (R) or for 1; for Km: read-out: Km ± SEM, net uptake minus empty vector control;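 on all read-outs here: intracellular accumulation in HEK293 cells measured by chiral HPLC-MS/MS after a 2 min substrate exposure at 37 °C, uptake normalized to total protein (bicinchoninic acid assay)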
T2 sequence (O75751 1-556): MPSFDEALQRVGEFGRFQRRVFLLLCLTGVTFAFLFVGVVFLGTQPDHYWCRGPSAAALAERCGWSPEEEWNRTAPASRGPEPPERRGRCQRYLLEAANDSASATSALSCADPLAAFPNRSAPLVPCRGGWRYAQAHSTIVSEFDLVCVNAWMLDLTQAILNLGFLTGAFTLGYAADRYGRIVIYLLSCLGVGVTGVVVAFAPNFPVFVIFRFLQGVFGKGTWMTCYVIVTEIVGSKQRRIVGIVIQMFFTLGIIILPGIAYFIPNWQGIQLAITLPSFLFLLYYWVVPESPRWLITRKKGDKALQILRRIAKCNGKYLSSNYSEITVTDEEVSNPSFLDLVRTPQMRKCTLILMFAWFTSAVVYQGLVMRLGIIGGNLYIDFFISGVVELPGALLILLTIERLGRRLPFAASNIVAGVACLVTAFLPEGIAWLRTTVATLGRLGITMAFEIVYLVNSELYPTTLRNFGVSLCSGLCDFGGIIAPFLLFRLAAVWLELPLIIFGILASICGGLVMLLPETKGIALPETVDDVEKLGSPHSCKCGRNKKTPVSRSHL
Experimental: as §1, §2
Intracellularly accumulated test substances were quantified by HPLC-MS/MS analysis using a Shimadzu Nexera HPLC system with a SIL-30AC autosampler, a CTO-20AC column oven, a LC-30AD pump, and a CBM-20A controller (Shimadzu, Kyoto, Japan). Stereoselective chromatography was carried out on a [sequence] CBH HPLC column (100 × 3 mm inner dimension with 5 μM particle size; Sigma-Aldrich, Darmstadt, Germany) with a corresponding 10 × 3 mm guard column. Reversed phased chromatography was carried out using an ammonium acetate (NH4Ac) buffered aqueous mobile phase with isopropyl alcohol (IPA) as organic solvent. […] The order of elution of the enantiomers was obtained from available reference literature [43] or by applying enantiopure reference compounds to the chiral HPLC. […] Given the structural similarity of the investigated substances and the fact that separation was performed on the same column with almost identical mobile phases, we assume that this order of elution for our compound set is always the (R)- before the (S)-enantiomer.
as §4
All uptake data were normalized to protein content to account for variation in the number of seeded sells. Transporter-mediated net uptake was calculated by subtracting uptake into empty vector-transfected control cells from uptake into transporter-transfected cells. Kinetic parameters were then determined after non-linear regression following the Michaelis–Menten equation (v = vmax × [S]/(Km + [S])) using GraphPad Prism (Version 5.01 for Windows, GraphPad Software, La Jolla, CA, USA). Vmax refers to the maximum transport velocity and Km is defined as the substance concentration required to reach half of vmax. The intrinsic clearance Clint was calculated as the quotient of vmax over Km.

[5] = target: T1, SERT; experiment: Stereoselective uptake into SERT-overexpressing HEK293 cells; conditions: for Vmax ± SEM / Km: HEK293 cells overexpressing human SERT, racemic substrate, two minutes; for Vmax ± SEM: net uptake; for Clint ± SEM: SERT, quotient of vmax over Km; for Km: read-out: Km ± SEM, net uptake minus empty vector control;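 on all read-outs here: uptake into HEK293 cells stably expressing human SERT over 2 min, enantiomers measured in cell lysate by chiral HPLC-MS/MS, normalized to total protein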
Experimental: as §1, §2, §3, §4, §5

[6] = target: T3, OCT1 (Homo sapiens, UniProt O15245); experiment: Stereoselective uptake into OCT1-overexpressing HEK293 cells; conditions: for Vmax ± SEM / Km: HEK293 cells overexpressing human OCT1, racemic substrate, two minutes; for Vmax ± SEM: net uptake; for Clint ± SEM: quotient of vmax over Km; for Km: read-out: Km ± SEM, net uptake minus empty vector control;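 on all read-outs here: enantiomers quantified inside cells by chiral HPLC-MS/MS, uptake normalized to total protein from bicinchoninic acid assay, substrates applied in HBSS+ buffer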
T3 sequence (O15245 1-554): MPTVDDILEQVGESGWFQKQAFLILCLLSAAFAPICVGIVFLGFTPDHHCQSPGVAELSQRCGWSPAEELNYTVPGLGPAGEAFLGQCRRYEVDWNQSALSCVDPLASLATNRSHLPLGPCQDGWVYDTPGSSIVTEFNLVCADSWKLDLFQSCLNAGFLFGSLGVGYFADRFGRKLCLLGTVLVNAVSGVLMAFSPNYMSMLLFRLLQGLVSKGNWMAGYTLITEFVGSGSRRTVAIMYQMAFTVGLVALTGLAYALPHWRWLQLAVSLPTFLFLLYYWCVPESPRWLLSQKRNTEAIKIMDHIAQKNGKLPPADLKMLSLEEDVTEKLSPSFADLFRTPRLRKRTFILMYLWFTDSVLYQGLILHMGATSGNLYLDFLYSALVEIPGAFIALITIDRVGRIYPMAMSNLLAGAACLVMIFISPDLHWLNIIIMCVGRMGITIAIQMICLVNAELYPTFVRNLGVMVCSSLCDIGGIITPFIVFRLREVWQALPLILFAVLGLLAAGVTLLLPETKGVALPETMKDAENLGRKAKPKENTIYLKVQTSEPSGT

[7] = target: T4, OCT2 (Homo sapiens, UniProt O15244); experiment: Stereoselective uptake into OCT2 (wild-type)-overexpressing HEK293 cells; conditions: for Vmax ± SEM / Km: HEK293 cells overexpressing human OCT2, racemic substrate, two minutes; for Vmax ± SEM: net uptake; for Clint ± SEM: OCT2, quotient of vmax over Km; for Km: read-out: Km ± SEM, net uptake minus empty vector control
T4 sequence (O15244 1-555 S270A): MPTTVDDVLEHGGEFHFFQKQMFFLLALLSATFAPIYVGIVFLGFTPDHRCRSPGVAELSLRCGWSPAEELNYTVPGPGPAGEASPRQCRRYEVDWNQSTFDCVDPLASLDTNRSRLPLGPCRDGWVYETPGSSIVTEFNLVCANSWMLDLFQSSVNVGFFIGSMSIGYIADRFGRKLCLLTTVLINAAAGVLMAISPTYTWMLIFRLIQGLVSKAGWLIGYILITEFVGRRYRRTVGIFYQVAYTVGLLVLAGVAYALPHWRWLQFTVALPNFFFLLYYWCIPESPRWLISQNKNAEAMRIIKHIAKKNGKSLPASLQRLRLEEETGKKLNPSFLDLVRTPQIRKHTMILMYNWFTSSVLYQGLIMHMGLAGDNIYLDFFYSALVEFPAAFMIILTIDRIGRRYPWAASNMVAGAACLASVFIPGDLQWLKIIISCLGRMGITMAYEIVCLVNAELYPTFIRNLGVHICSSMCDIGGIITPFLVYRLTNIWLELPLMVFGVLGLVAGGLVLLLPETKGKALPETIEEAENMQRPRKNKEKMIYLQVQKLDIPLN

[8] = target: T5, OCT2 (Homo sapiens, UniProt O15244, S270A); experiment: as above; conditions: OCT2, ratio between enantiomers; for Stereoselectivity Km: given as for (R) or for 1 (first-eluting)
T5 sequence (O15244 1-555 S270A): T4 sequence (O15244 1-555 S270A)

[9] = target: DAT (Homo sapiens, UniProt Q01959); experiment: Stereoselective uptake into DAT-overexpressing HEK293 cells;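 further: intracellular accumulation measured by chiral HPLC-MS/MS in stably transfected HEK293 cells, normalized to total protein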
Sequence of DAT (Q01959 whole entry): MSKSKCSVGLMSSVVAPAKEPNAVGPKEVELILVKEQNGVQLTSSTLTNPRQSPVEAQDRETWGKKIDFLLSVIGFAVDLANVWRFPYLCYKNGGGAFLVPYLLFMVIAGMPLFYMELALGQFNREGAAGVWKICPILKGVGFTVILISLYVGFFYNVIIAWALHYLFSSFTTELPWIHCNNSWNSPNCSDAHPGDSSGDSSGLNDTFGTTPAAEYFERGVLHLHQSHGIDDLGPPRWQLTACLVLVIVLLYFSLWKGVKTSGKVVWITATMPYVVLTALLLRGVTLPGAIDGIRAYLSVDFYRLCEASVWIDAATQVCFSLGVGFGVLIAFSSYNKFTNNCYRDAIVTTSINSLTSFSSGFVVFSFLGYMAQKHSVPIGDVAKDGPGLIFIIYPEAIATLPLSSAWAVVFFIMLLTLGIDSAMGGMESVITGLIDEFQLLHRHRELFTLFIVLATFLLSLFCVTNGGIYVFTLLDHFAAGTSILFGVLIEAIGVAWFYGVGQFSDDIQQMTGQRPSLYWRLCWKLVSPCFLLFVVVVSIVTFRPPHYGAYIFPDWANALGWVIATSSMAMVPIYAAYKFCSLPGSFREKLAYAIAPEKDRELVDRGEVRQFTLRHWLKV

[10] = OCT3, ratio between enantiomers
[11] = OCT1, ratio between enantiomers, given as for (S) or for 2
[12] = DAT, ratio between enantiomers, given as for (S) or for 2

| Structure (SMILES) | Stereoselectivity ClInt [1] | Vmax ± SEM [2] | Clint ± SEM [2] | Stereoselectivity ClInt [2] | Stereoselectivity Vmax [2] | Stereoselectivity Km [2] | Km [2] | Vmax ± SEM [4] | Clint ± SEM ([4]; OCT3) | Stereoselectivity Vmax [4, 10] | Km [4] | Stereoselectivity Km [5] | Stereoselectivity Vmax [5] | Vmax ± SEM [5] | Clint ± SEM [5] | Km [5] | Vmax ± SEM [6] | Clint ± SEM ([6]; OCT1) | Km [6] | Vmax ± SEM [7] | other results |
| --- | --- | --- | --- | --- | --- | --- | --- | --- | --- | --- | --- | --- | --- | --- | --- | --- | --- | --- | --- | --- | --- |
| NC[C@H](O)c1ccc(O)c(O)c1 [(R)-Norepinephrine] | 1.78-fold for (R) | 262 ± 15 pmol × mg Protein^−1 × min^−1 | 113.3 ± 47.6 mL × g Protein^−1 × min^−1 | 1.05-fold for (S) | 1.38-fold for (S) ** | 1.32-fold for (S) | 2.31 ± 0.84 µM | 3683 ± 360 pmol × mg Protein^−1 × min^−1 | 6.61 ± 3.02 mL × g Protein^−1 × min^−1 | 1.01-fold for (R) | 557 ± 200 µM | 1.01-fold for (R) | 1.79-fold for (R) ** | 727 ± 60 pmol × mg Protein^−1 × min^−1 | 4.12 ± 1.31 mL × g Protein^−1 × min^−1 | 176 ± 41.7 µM | 1524 ± 330 pmol × mg Protein^−1 × min^−1 | 0.45 ± 0.28 mL × g Protein^−1 × min^−1 | 3390 ± 1420 µM | 6603 ± 664 pmol × mg Protein^−1 × min^−1 | Transporter selectivity [3]: 1.21 fold; Stereoselectivity Km ([4]; OCT3, ratio between enantiomers, given as for (R) or for 1 (first-eluting)): 1.07-fold for (R); Stereoselectivity ClInt ([4]; OCT3, ratio between enantiomers, given as for (S) or for 2): 1.07-fold for (S); Stereoselectivity ClInt [6, 11]: 1.06-fold for (S); Stereoselectivity Vmax [6, 11]: 1.16-fold for (S); Stereoselectivity Km ([6]; OCT1, ratio between enantiomers, given as for (S) or for 2 (second-eluting)): 1.09-fold for (S); Clint ± SEM [7]: 3.81 ± 1.30 mL × g Protein^−1 × min^−1; Km [7]: 1730 ± 418 µM; Stereoselectivity ClInt ([8]; given as for (R) or for 1): 1.64-fold for (R); Stereoselectivity Vmax ([8]; given as for (R) or for 1): 2.17-fold for (R) **; Stereoselectivity Km [8]: 1.32-fold for (R); Clint ± SEM ([9]; DAT, quotient of vmax over Km): 138.8 ± 19.7 mL × g Protein^−1 × min^−1; Stereoselectivity ClInt [9, 12]: 1.12-fold for (S); Stereoselectivity Vmax [9, 12]: 1.47-fold for (S) ***; Stereoselectivity Km ([9]; DAT, ratio between enantiomers, given as for (S) or for 2 (second-eluting)): 1.31-fold for (S); Vmax ± SEM ([9]; HEK293 cells overexpressing human DAT, racemic substrate, two minutes, net uptake): 3085 ± 81 pmol × mg Protein^−1 × min^−1; Km ([9]; read-out: Km ± SEM, HEK293 cells overexpressing human DAT, racemic substrate, two minutes, net uptake minus empty vector control): 22.2 ± 2.6 µM |
| C[C@@H]1NCCc2cc(O)c(O)cc21 [Salsolinol-2, Salsolinol] | 2.48 fold | 151 pmol × mg Protein^−1 × min^−1 | 1.48 mL × g Protein^−1 × min^−1 | 1.19 fold | 1.35 fold | 1.13 fold | 102 µM | 697 pmol × mg Protein^−1 × min^−1 | 3.15 mL × g Protein^−1 × min^−1 | 1.01 fold | 222 µM | 1.85 fold | 1.34 fold | 171 pmol × mg Protein^−1 × min^−1 | 0.71 mL × g Protein^−1 × min^−1 | 239 µM | 1426 pmol × mg Protein^−1 × min^−1 | 10.9 mL × g Protein^−1 × min^−1 | 131 µM | 9160 pmol × mg Protein^−1 × min^−1 | Transporter selectivity ([3]; listed as (S)-Salsolinol): 1.45 fold; Stereoselectivity ClInt [4]: 1.21 fold; Stereoselectivity Km ([4]; OCT3, ratio between enantiomers, given as for (S) or for 2 (second-eluting)): 1.20 fold; Stereoselectivity ClInt ([6]; OCT1, ratio between enantiomers, given as for (R) or for 1 (also 1.00-fold for 1/2)): 1.00 fold; Clint ± SEM [7]: 42.7 mL × g Protein^−1 × min^−1; Km [7]: 213 µM; Stereoselectivity Km [8]: 1.04 fold; Stereoselectivity ClInt ([8]; given as for (S) or for 2): 1.05 fold; Stereoselectivity Vmax ([8]; given as for (S) or for 2): 1.01 fold |
